Reference: US5140011A, “Amino acid derivatives which have renin inhibiting activity” (Hoffmann-La Roche, Inc., priority 1989, dated 1992)

Molecular target: T1, human renin (Homo sapiens, UniProt P00797)
T1 sequence (P00797 67-406): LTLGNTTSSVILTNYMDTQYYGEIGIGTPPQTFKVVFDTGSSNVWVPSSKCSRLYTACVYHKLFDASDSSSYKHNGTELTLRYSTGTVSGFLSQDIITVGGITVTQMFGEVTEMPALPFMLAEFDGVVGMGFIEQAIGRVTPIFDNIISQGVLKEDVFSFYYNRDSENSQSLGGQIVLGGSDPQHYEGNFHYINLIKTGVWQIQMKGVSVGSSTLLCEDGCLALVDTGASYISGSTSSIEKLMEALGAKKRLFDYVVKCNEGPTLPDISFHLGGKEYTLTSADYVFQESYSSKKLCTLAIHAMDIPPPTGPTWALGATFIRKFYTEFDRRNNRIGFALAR
Test: In vitro test with pure human renin
Type: biochemical
Conditions: human tetradecapeptide renin substrate (hTD), pH 7.4, 3 hours at 37° C. vs 4° C., angiotensin I measured via RIA
Description: In vitro test with pure human renin
The test is carried out in Eppendorf test tubes. The incubation mixture consists of (1) 100 μl of human renin in buffer A (0.1M sodium phosphate solution, pH 7.4, containing 0.1% bovine serum albumin, 0.1% sodium azide and 1 mM ethylenediaminetetraacetic acid), sufficient for a renin activity of 2-3 ng of angiotensin I/ml/hr.; (2) 145 μl of buffer A; (3) 30 μl of a 10 μM human tetradecapeptide renin substrate (hTD) in 10 mM hydrochloric acid; (4) 15 μl of dimethyl sulphoxide with or without inhibitor and (5) 10 μl of a 0.03 molar solution of hydroxyquinoline sulphate in water.
The samples are incubated for 3 hours at 37° C. or 4° C. in triplicate. 2×100 μl samples per experimental test tube are used in order to measure the production of angiotensin I via RIA (standard radioimmunoassay; clinical assay solid phase kit). Cross reactivities of the antibody used in the RIA are: angiotensin I 100%; angiotensin II 0.0013%; hTD (angiotensin I-Val-Ile-His-Ser-OH) 0.09%. The production of angiotensin I is determined by the difference between the experiment at 37° C. and that at 4° C.
The following controls are carried out:
(a) Incubation of hTD samples without renin and without inhibitor at 37° C. and 4° C. The difference between these two values gives the base value of angiotensin I production.
(b) Incubation of hTD samples with renin, but without inhibitor at 37° C. and 4° C. The difference between these values give the maximal value of angiotensin I production.
In each sample the base value of the angiotensin I production is subtracted from the angiotensin I production which is determined. The difference between the maximal value and the base value gives the value of the maximal substrate hydrolysis (=100%) by renin.
The results are given as IC50 values which denote that concentration of the inhibitor at which the enzymatic activity is inhibited by 50%. The IC50 values are determined from a linear regression curve from a logit-log plot.

SMILES	IC50
CC(C)[C@@H](/C=C/C(=O)NCc1ccccn1)C[C@H](O)[C@H](CC1CCCCC1)NC(=O)[C@H](Cc1c[nH]cn1)NC(=O)[C@@H](CC(=O)C(C)(C)C)Cc1ccccc1 [D, (S)-N-[(1S,2S,4S,E)-1-(cyclohexylmethyl)-2-hydroxy-4-isopropyl-6-[(2-pyridylmethyl)carbamoyl]-5-hexenyl]-α-[(R)-α-(3,3-dimethyl-2-oxobutyl)hydrocinnamamido]imidazole-4-propionamide]	13 nM
CCCCCC(=O)[C@@H](C[C@H](O)[C@H](CC1CCCCC1)NC(=O)[C@H](Cc1c[nH]cn1)NC(=O)[C@@H](CC(=O)C(C)(C)C)Cc1ccccc1)C(C)C [C, (S)-N-[(1S,2S,4S)-1-(cyclohexylmethyl)-2-hydroxy-4-isopropyl-5-oxodecyl]-α-[(R)-α-(3,3-dimethyl-2-oxobutyl]hydrocinnamamido]imidazole-4-propionamide]	7 nM
CCC(=O)OCC[C@@H](C[C@H](O)[C@H](CC1CCCCC1)NC(=O)[C@H](Cc1c[nH]cn1)NC(=O)[C@H](Cc1ccccc1)NC(=O)OC(C)(C)C)C(C)C [E, t-butyl [(S)-α-[[(S)-1-[[(1S,2S,4S)-1-(cyclohexylmethyl)-2-hydroxy-4-isopropyl-6-(propionyloxy)hexyl]carbamoyl]-2-imidazol-4-ylethyl]carbamoyl]phenethyl]carbamate]	9 nM
CCCCNC(=O)C[C@@H](C[C@H](O)[C@H](CC1CCCCC1)NC(=O)[C@H](Cc1c[nH]cn1)NC(=O)[C@H](Cc1ccccc1)NC(=O)OC(C)(C)C)C(C)C [B, t-butyl [(S)-α-[[(S)-1-[[(1S,2S,4R)-4-[(butylcarbamoyl)methyl]-1-(cyclohexylmethyl)-2-hydroxy-5-methylhexyl]carbamoyl]-2-imidazol-4-ylethyl]carbamoyl]phenethyl]carbamate]	9 nM
CCCCNC(=O)C[C@@H](C[C@H](O)[C@H](CC1CCCCC1)NC(=O)[C@H](Cc1c[nH]cn1)NC(=O)[C@@H](CC(=O)C(C)(C)C)Cc1ccccc1)C(C)C [A, (S)-N-[(1S,2S,4R)-4-[(Butylcarbamoyl)methyl]-1-(cyclohexylmethyl)-2-hydroxy-5-methylhexyl]-α-[(R)-α-(3,3-dimethyl-2-oxobutyl)hydrocinnamamido]imidazole-4-propionamide]	3 nM

Results, then the compound that gave them:

IC50	SMILES
11 nM	CC(C)C(CC(O)C(CC1CCCCC1)NC(=O)C(Cc1c[nH]cn1)NC(=O)C(Cc1ccccc1)NC(=O)C1CCCN1C(=O)OC(C)(C)C)C(O)CNCCc1ccccc1 (single isomer, unassigned) [G, (2S or R,3S,5S,6S)-6-(Boc-D-Pro-Phe-His-NH)-7-cyclohexyl-3-isopropyl-1-(phenethylamino)-2,5-heptanediol]
10 nM	CC(C)[C@@H](CCOC(=O)C(C)(C)C)C[C@H](O)[C@H](CC1CCCCC1)NC(=O)C(Cc1c[nH]cn1)NC(=O)[C@H](Cc1ccccc1)NC(=O)[C@H]1CCCN1C(=O)OC(C)(C)C (mixture of isomers) [F, t-butyl (R)-2-[[(S)-α-[[(R and S)-1-[[(1S,2S,4S)-1-(cyclohexylmethyl]-2-hydroxy-4-isopropyl-6-(pivaloyloxy)hexyl]carbamoyl]-2-imidazol-4-ylethyl]carbamoyl]phenethyl]carbamoyl]-1-pyrrolidinecarboxylate]
8 nM	CC(C)C(CC(O)C(CC1CCCCC1)NC(=O)C(Cc1c[nH]cn1)NC(=O)C(Cc1ccccc1)NC(=O)C1CCCN1C(=O)OC(C)(C)C)C(O)CNCc1ccccn1 (racemic) [I, (2RS,3S,5S,6S)-6-(Boc-D-Pro-Phe-His-NH)-7-cyclohexyl-3-isopropyl-1-[(2-pyridylmethyl)amino]-2,5-heptanediol]
4 nM	CC(C)C(CC(O)C(CC1CCCCC1)NC(=O)C(Cc1c[nH]cn1)NC(=O)C(Cc1ccccc1)NC(=O)C1CCCN1C(=O)OC(C)(C)C)C(O)CNCCc1ccccc1 (single isomer, unassigned) [H, (2R or S,3S,5S,6S)-6-(Boc-D-Pro-Phe-His-NH)-7-cyclohexyl-3-isopropyl-1-(phenethylamino)-2,5-heptanediol]
